In US20250122190A1, “HALOGEN-SUBSTITUTED PYRIDAZINONE COMPOUND AND APPLICATION THEREOF” (MEDSHINE DISCOVERY INC., priority 2021, published 2025):

Target: T1, hTRPC5-T478C (Homo sapiens, UniProt Q9UL62)
T1 sequence (Q9UL62 1-973): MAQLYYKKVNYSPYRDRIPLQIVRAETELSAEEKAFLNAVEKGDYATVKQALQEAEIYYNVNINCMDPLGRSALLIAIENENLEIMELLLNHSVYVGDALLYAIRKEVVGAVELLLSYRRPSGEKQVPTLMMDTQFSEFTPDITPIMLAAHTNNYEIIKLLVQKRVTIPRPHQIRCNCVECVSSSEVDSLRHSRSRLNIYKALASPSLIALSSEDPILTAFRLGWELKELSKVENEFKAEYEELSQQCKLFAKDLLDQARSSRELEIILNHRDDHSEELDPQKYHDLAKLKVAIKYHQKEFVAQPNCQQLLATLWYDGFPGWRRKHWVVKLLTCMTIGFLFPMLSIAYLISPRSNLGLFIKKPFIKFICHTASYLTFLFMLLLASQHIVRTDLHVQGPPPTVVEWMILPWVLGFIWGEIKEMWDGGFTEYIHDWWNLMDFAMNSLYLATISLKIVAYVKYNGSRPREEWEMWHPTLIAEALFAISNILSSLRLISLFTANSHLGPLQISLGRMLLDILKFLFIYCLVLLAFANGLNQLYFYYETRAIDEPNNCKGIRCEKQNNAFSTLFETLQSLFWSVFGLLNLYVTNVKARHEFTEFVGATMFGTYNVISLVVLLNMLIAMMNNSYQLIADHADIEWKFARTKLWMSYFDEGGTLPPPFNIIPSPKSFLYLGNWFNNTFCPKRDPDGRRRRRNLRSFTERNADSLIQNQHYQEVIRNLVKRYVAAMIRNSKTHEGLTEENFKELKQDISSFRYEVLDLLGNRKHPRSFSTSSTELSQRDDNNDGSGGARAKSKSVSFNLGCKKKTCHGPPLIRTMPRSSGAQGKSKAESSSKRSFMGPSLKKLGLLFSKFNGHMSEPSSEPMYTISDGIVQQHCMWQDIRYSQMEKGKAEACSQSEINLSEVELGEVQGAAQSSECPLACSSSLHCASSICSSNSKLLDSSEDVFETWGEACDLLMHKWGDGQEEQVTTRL
Test: hTRPC5-T478C patch clamp IC50 assay
Format: cell-based
Settings: hTRPC5-T478C-HEK cells, whole-cell patch clamp, Englerin A agonist
Protocol: Cell culture: hTRPC5-T478C-HEK cells were cultured in a humid environment in 5% CO2 at 37° C.
Cell culture medium ingredients: • DMEM, Supplier: Gibco, Catalog No. 11965-092; • FBS, Supplier: Gibco, Catalog No. 10099-141C, Concentration: 10%; • Pen/Strep, Supplier: Invitrogen, Catalog No. 15140-122, Concentration: 1%; • Zeocin, Supplier: Invitrogen, Catalog No. R25005, Concentration: 200 μg/mL; • Blasticidin S, Supplier: Invitrogen, Catalog No. R21001, Concentration: 5 μg/mL.
In general, the TRPC5-T478C cell line was passaged three times weekly. The dilution factor for each passage was 1:3. Once the cells reached about 80% confluence in the T-75 flask, the cell line was digested with trypsin for about 1 minute and the cell suspension was removed from the flask with a pipette. Depending on the dilution ratio, the removed cell suspension would be transferred to another T-75 flask containing cell culture medium. Note that in order to maintain the logarithmic growth of the cells, the confluence of the cells should be maintained at the subconfluent stage and the cells should be passaged once every 2 to 3 days depending on the proliferation rate of the cell line.
(1) Extracellular fluid: sodium chloride (145 mmol/L), potassium chloride (4 mmol/L), magnesium chloride (1.5 mmol/L), glucose (10 mmol/L), hydroxyethyl piperazineethanesulfonic acid (HEPES, 10 mmol/L). The extracellular fluid was adjusted to pH 7.4 with NaOH, and the osmotic pressure was adjusted to about 305 mOsm/L with pure water or sucrose.
(2) Intracellular fluid: cesium chloride (140 mmol/L), ethylene glycol diethyl ether diamine tetraacetic acid (EGTA, 1 mmol/L), magnesium chloride (2 mmol/L), glucose (10 mmol/L), hydroxyethyl piperazineethanesulfonic acid (HEPES, 10 mmol/L). The intracellular fluid was adjusted to pH 7.2 with […], and the osmotic pressure was adjusted to about 295 mOsm/L with pure water or sucrose.
(3) The extracellular fluid was required to be formulated once a week, and the intracellular fluid was required to be subpackaged and stored at −20° C. after formulation.
Positive reference compounds Englerin A and 2-aminoethoxydiphenyl borate (2-APB) were dissolved in 100% DMSO and stored as a 10 mM working solution after formulation. The test compounds were dissolved in 100% DMSO and stored as a 10 mM working solution after formulation. The final concentration of DMSO in the test solution should be less than 0.3%.
Whole-cell patch clamping was performed at room temperature. The electrical signals recorded using an EPC 10 USB amplifier (HEKA Elektronik, Germany) were low-pass filtered at 3 kHz and finally recorded in PatchMaster 2×90.5 software (HEKA Elektronik, Germany). In this step, the quality control standards were that the cell high-resistance seal was formed at a value greater than 500 MOhms and the detection current was greater than 0.3 nA.
The recording electrode was a borosilicate glass capillary (GC150tF-10, Harvard Apparatus Co., UK), which was pulled by a vertical puller (NARISHIGE PC-10, Japan) and polished. In this step, the quality control standard was that the electrode resistance was between 2 to 5 MΩ.
During whole-cell patch clamp recordings, a continuous filling system (BT100-2J, LongerPump, China) was used to continuously perfuse extracellular fluid. The filling system was mounted on the stage of an upright microscope (FN—S2N, Nikon, Japan), and the filling tip was manually positioned under the microscope.
The voltage instructions for hTRPC5-T478C current amplitude detection were as follows: the cells were clamped as follows: the clamping potential changed in a stepped manner from −40 mV to −80 mV (duration: 50 ms); then the clamping voltage ramped up to +80 mV, and the whole process lasted for 200 ms; then clamping was performed at +80 mV for 50 ms, and finally, the voltage returned to the clamping potential of −40 mV. […]

| SMILES | IC50 [nM] |
| --- | --- |
| O=c1[nH]ncc(N2CCc3c(ncnc3Sc3ccc(F)cc3C(F)(F)F)C2)c1Cl [Compound WX002] | 115 |
| O=c1[nH]ncc(N2CCc3c(ncnc3Oc3ccc(F)cc3Br)C2)c1Cl [Compound WX004] | 91.4 |
| O=c1[nH]ncc(N2CCc3c(ncnc3Oc3ccc(F)cc3C(F)(F)F)C2)c1Br [Compound WX009] | 304 |

Results, then the compound that gave them:

| IC50 [nM] | SMILES |
| --- | --- |
| 15.3 | Nc1nc2c(c(Sc3ccc(F)cc3C(F)(F)F)n1)CCN(c1cn[nH]c(=O)c1Cl)C2 [Compound WX013] |
| 16.6 | O=c1[nH]ncc(N2CCc3c(nc(CO)nc3Sc3ccc(F)cc3C(F)(F)F)C2)c1Cl [Compound WX012] |
| 196 | CC(F)(F)c1cc(F)ccc1Oc1ncnc2c1CCN(c1cn[nH]c(=O)c1Cl)C2 [Compound WX010] |
| 191 | COCc1nc2c(c(Oc3ccc(F)cc3C(F)(F)F)n1)CCN(c1cn[nH]c(=O)c1Cl)C2 [Compound WX011] |
